Consider four molecules from US4472392A, “Sulfonate containing ester prodrugs of corticosteroids” (The Upjohn Company, priority 1983, dated 1984).

Data set [1] can be described thus: Estimated t90% (time for 10% hydrolysis) in dilute aqueous solution at 25° C. It counts as physicochemical. Particulars: extrapolated from rate constants at pH 2 and 8 (0.01 ionic strength buffers) to the pH at which hydrolysis is a minimum. The protocol: The solution stability of the compounds of Formula I varies to some extent depending on the nature of X and Y and the values for m and n. Shown in Table I are estimates of t90% (time for 10% hydrolysis) of various derivatives in dilute aqueous solutions at 25° C. These estimates are based on an extrapolation of the rate constants for acid and base catalyzed hydrolysis to the pH at which hydrolysis is a minimum. The rate constants for acid and base catalyzed hydrolysis were determined at pH 2 and 8, respectively, in 0.01 ionic strength buffers.

The conditions of data set [2]: M. Kawamura et al., Yakugaku Zasshi, 91, 871 (1971); cited from earlier work.
The nature of data set [3]: Base catalyzed hydrolysis rate in concentrated versus dilute solution. Particulars: 0.11M solution versus 5×10^-4 M solution. It counts as physicochemical. An excerpt:
The actual shelf-life of formulations of the above compounds would be expected to differ from the above estimates for two reasons: (1) The solubility of the parent corticosteroid formed on hydrolysis may be exceeded prior to 10% degradation of the ester. Micelle formation by the intact prodrugs of Formula I results in solubilization of free corticosteroid thereby prolonging shelf-life. […]. The degree of solubilization varies with the ester concentration, nature of the pro-moiety, and the structure of the corticosteroid. (2) Micelle formation by the intact prodrug in concentrated solutions results in stabilization of the ester linkage toward base catalyzed hydrolysis. For example, the base catalyzed hydrolysis rate in a 0.11M solution of the compound of Example 1 is less than one-half the rate in a 5×10^-4 M solution.

Counter-ions that a name gives are not always drawn.

With `C[C@H]1C[C@@H]2[C@H]([C@@H](O)C[C@@]3(C)[C@H]2CC[C@]3(O)C(=O)COC(=O)CCCCCCC(=O)NCCS(=O)(=O)O)[C@@]2(C)C=CC(=O)C=C12` [Example 2, Taurine amide of methylprednisolone 21-suberate (Na salt)], in data set [1], the “Estimated t90% (time for 10% hydrolysis)” value was 3.9 years. `C[C@]12CCC(=O)C=C1CC[C@@H]1[C@@H]2[C@@H](O)C[C@@]2(C)[C@H]1CC[C@]2(O)C(=O)COS(=O)(=O)O` [21-sulfate of hydrocortisone]: the activity in mice result in data set [2] is “inactive”. In the case of `C[C@H]1C[C@@H]2[C@H]([C@@H](O)C[C@@]3(C)[C@H]2CC[C@]3(O)C(=O)COC(=O)CCC(=O)N(C)CCS(=O)(=O)O)[C@@]2(C)C=CC(=O)C=C12` [Example 1, N-Methyl taurine amide of methylprednisolone 21-hemisuccinate (Na salt)], in data set [1], the “Estimated t90% (time for 10% hydrolysis)” value is listed as 3.9 years. In addition, in data set [3], the “base catalyzed hydrolysis rate relative to the rate in dilute solution” value was “less than one-half”. For `C[C@H]1C[C@@H]2[C@H]([C@@H](O)C[C@@]3(C)[C@H]2CC[C@]3(O)C(=O)COC(=O)CCCCCCC(=O)N(C)CCS(=O)(=O)O)[C@@]2(C)C=CC(=O)C=C12` [Example 3, N-Methyltaurine amide of methylprednisolone 21-hemisuberate (Na salt)], in data set [1], the “Estimated t90% (time for 10% hydrolysis)” value is 4.1 years.
